The EC50 is the concentration at which the effect is half-maximal.

Read-outs that look alike come from different tables or passages of the source.

Assay [1] concerns A-673 cells. The experiment in a line: Cell viability, crystal violet staining. It counts as cell-based. Put shortly: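 Readout is absorbance at 570 nm of crystal violet, taken up in 0.1 M sodium citrate in 50% ethanol after staining with 0.5% dye in 25% methanol. Plates held 5×10^3 cells per well, and compounds were added one day after seeding for 72 hours. Data are relative to vehicle, mean±SE.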

Assay [2] deals with FOXM1^A2 mRNA and FOXM1^BC mRNA. In words: Splicing assay (FOXM1), qPCR of isoform mRNAs. It counts as cell-based. The protocol: Various cells lines were treated with the SMSMs described herein. RNA was then isolated, cDNA synthesized, qPCR performed and the levels of various mRNA targets of the SMSMs were determined. In some instances, RNA was isolated, cDNA synthesized, qPCR performed and the levels of mRNA isoforms in the various cell samples were determined.
On the day of the experiment, a 96-well plate was seeded with the cell lines of interest. The cells were diluted with full growth media to a concentration of 2.0×10^5 cells/mL and 100 μL of cells were added to each well (20,000 cells per well). The cells were treated with a compound immediately after plating.
The compounds were then added to the cell plate using the HP compound dispenser. In the initial experiment, a top concentration of 10 μM and an 8 point 4-fold dilution scheme was used. The stock compounds were made at a concentration of 5 mM, and the DMSO concentration was set to 0.2%. DMSO was used to normalize all the compound-containing wells and the untreated cells.
The treated cells were incubated at 37° C. in a 5% CO2 incubator for the desired amount of time. Plates were placed in a plastic bag with a wet paper towel to prevent evaporation.
RNA was isolated using the Cells to CT kit (ThermoFisher, AM1728). The cells were washed once with 100 μL cold PBS. 50 μL of lysis buffer was added to each well/tube (49.5 μL lysis buffer+0.5 μL DNase I per well/tube). The lysis reaction was mixed and incubated at room temperature for 5 minutes. 5 μL of stop solution was added directly into each cell lysis reaction and mixed by pipetting up and down 5 times. The plates/tubes were incubated at room temperature for 2 minutes then placed on ice if the cDNA synthesis was to be performed immediately. Otherwise, the plates/tubes were stored at −80° C. cDNA synthesis reactions were then performed. Reverse Transcription (RT) Master mix was prepared according to the table below.
40 μL RT master mix was added to PCR tubes or plate wells. 10 μL of RNA was added to each tube/well. The RT thermal cycler program was then run and tubes or plate wells were incubated at 37° C. for 1 hour, then at 95° C. for 5 minutes to deactivate the enzyme.
The qPCR was performed using a QuantStudio 6 instrument (ThermoFisher) and the following cycling conditions and according to the tables below. All samples and standards were analyzed in triplicate. Cycle 1: 2 minutes at 50° C. Cycle 2: 10 minutes at 95° C. Cycle 3 (repeat 40 times): 15 seconds at 95° C., 1 minute at 60° C.
The determined isoform 2and isoform 1quantities were then be used to determine the isoform 2: […] at the various compound concentrations. The PPIA quantities were used in the normalization to account of cell proliferation effects of the compounds.
The dilution necessary to make the top standard is calculated. A top concentration 200,000,000 copies/μL of the stock plasmid was prepared in TE buffer. A series of 10-fold dilutions, also in TE, were then made. A total of 5 μL of each standard was used in a qPCR well to generate samples containing 109 copies, […], 10^7copies, 10^6 copies, 10^5 copies, 10^4 copies, 10^3 copies, 10^2 copies, 10^1copies, and 0 copies.
An assay to measure the FOXM1^A2 mRNA and FOXM1^BC mRNA, or MADD^WT (isoform 4) mRNA and MADD^Ex16 (isoform 3) mRNA, or MAPTau^4R mRNA and MAPTau^3R mRNA simultaneously in cell wells was performed. The RNA values were measured relative to DMSO control and also included a housekeeping gene, PPIA to ensure data was consistent. The mRNA values were measured after 24 hours of incubation with the SMSM compounds.
A general note: Quantitative PCR measures a nucleic acid by following its amplification.

Where [3] appears, read: Homo sapiens, A673, cell viability, read-out: A-673 IC50 (nM) Cell viability.
Setting [4] is: FoxM1 BC mRNA decrease (exon included), read-out: Splice IC50 (nM) FoxM1 BC mRNA decrease (exon included).
[5] abbreviates: read-out: Splice EC50 (nM) FoxM1 A mRNA increase (exon excluded).
Setting [6] is: Homo sapiens, A673, cell viability, read-out: A-673 IC50 (nM), Cell viability.
[7] abbreviates: Homo sapiens, A673, cell viability, read-out: A-673 IC50 (nM), cell viability.

Consider “2-(6-(((1R,3s,5S)-8-azabicyclo[3.2.1]octan-3-yl)oxy)pyridazin-3-yl)-5-(1H-1,2,3-triazol-4-yl)phenol [compound 253]”, for which the IC50 was in the range of 501 to 1000 nM in assay [1] (cell viability, read-out: A-673 IC50 (nM), Cell viability) and 251 to 500 nM in assay [2] (FoxM1 BC mRNA decrease (exon included), 0.1-1000 nM, 24 hours, read-out: Splice IC50 (nM), FoxM1 BC mRNA decrease (exon included)). In assay [2] (FoxM1 A mRNA increase (exon excluded), 0.1-1000 nM, 24 hours, read-out: Splice EC50 (nM), FoxM1 A mRNA increase (exon excluded)), the EC50 lay in the range of 251 to 500 nM.

Take `CC1(C)CC(N(c2ccc(-c3ccc(-c4cn[nH]c4)cc3O)nn2)C2CC2)CC(C)(C)N1` [compound 129, 2-(6-(cyclopropyl(2,2,6,6-tetramethylpiperidin-4-yl)amino)pyridazin-3-yl)-5-(1H-pyrazol-4-yl)phenol]: the IC50 was 251 to 500 nM in assay [1] (setting [3]); 1 to 10 nM in assay [2] (24 h, LP-LoVo cells, 24 hours, table does not say EC50 or IC50, read-out: FOXM1); under 1 nM in assay [2] (24 h, MDA-MB-231-luc cells, 24 hours, table does not say EC50 or IC50, read-out: FOXM1); under 1 nM in assay [2] (Homo sapiens, A673, 24 h, A-673 cells, 24 hours, table does not say EC50 or IC50, read-out: FOXM1); under 1 nM in assay [2] (Homo sapiens, A-375, 24 h, A-375 cells, 24 hours, table does not say EC50 or IC50, read-out: FOXM1); under 1 nM in assay [2] (Homo sapiens, MDA-MB-157, 24 h, MDA-MB-157 cells, 24 hours, table does not say EC50 or IC50, read-out: FOXM1). Besides, the IC50 is 1 to 10 nM in assay [2] (Homo sapiens, SK-OV-3, 24 h, SKOV3 cells, 24 hours, table does not say EC50 or IC50, read-out: FOXM1) and under 1 nM in assay [2] (Homo sapiens, Z-138, 24 h, Z-138 cells, 24 hours, table does not say EC50 or IC50, read-out: FOXM1).

As to `CC1(C)CC(N(c2ccc(-c3ccc(-c4cn[nH]c4)cc3O)nn2)C2CCC2)CC(C)(C)N1` [compound 130, 2-(6-(cyclobutyl(2,2,6,6-tetramethylpiperidin-4-yl)amino)pyridazin-3-yl)-5-(1H-pyrazol-4-yl)phenol], the IC50 in assay [1] (setting [3]) and in assay [2] (setting [4]) was over 1000 nM throughout. In addition, the EC50 in assay [2] (setting [5]) is over 1000 nM.

Regarding `Oc1cc(-c2cn[nH]c2)ccc1-c1ccc(N2CCC3CNCCC32)nn1` (stereo not shown) [compound 131, 2-(6-(octahydro-1H-pyrrolo[3,2-c]pyridin-1-yl)pyridazin-3-yl)-5-(1H-pyrazol-4-yl)phenol], the IC50 in assay [1] (setting [3]) is over 1000 nM; in assay [2] (setting [4]) it was 251 to 500 nM. The EC50 in assay [2] (setting [5]) lay within 101 to 250 nM.

Consider `CN(c1ccc(-c2ccc(-c3cc[nH]c(=O)c3)cc2O)nn1)[C@@H]1C[C@H]2CCC[C@@H](C1)N2` [compound 293, 4-(4-(6-(((1R,3s,5S)-9-azabicyclo[3.3.1]nonan-3-yl)(methyl)amino)pyridazin-3-yl)-3-hydroxyphenyl)pyridin-2(1H)-one], for which, in assay [1] (setting [6]), the IC50 lay within 10 to 100 nM.

Regarding `CNC(=O)c1cc2cc(O)c(-c3ccc(N(C)[C@@H]4C[C@H]5CCC[C@@H](C4)N5)nn3)cc2o1` [compound 294, 6-(6-(((1R,3s,5S)-9-azabicyclo[3.3.1]nonan-3-yl)(methyl)amino)pyridazin-3-yl)-5-hydroxy-N-methylbenzofuran-2-carboxamide], the IC50 in assay [1] (setting [6]) lay within 501 to 1000 nM.

`CN(C)C(=O)c1cc2cc(O)c(-c3ccc(N(C)[C@@H]4C[C@H]5CCC[C@@H](C4)N5)nn3)cc2o1` [compound 295, 6-(6-(((1R,3s,5S)-9-azabicyclo[3.3.1]nonan-3-yl)(methyl)amino)pyridazin-3-yl)-5-hydroxy-N,N-dimethylbenzofuran-2-carboxamide]: the IC50 in assay [1] (setting [6]) lay within 251 to 500 nM.

`CNC(=O)c1cc2cc(-c3ccc(N(C)[C@@H]4C[C@H]5CCC[C@@H](C4)N5)nn3)c(O)cc2o1` [compound 297, 5-(6-(((1R,3s,5S)-9-azabicyclo[3.3.1]nonan-3-yl)(methyl)amino)pyridazin-3-yl)-6-hydroxy-N-methylbenzofuran-2-carboxamide]: the IC50 in assay [1] (setting [6]) lay within 10 to 100 nM.

`CN(C)C(=O)c1cc2cc(-c3ccc(N(C)[C@@H]4C[C@H]5CCC[C@@H](C4)N5)nn3)c(O)cc2o1` [compound 298, 5-(6-(((1R,3s,5S)-9-azabicyclo[3.3.1]nonan-3-yl)(methyl)amino)pyridazin-3-yl)-6-hydroxy-N,N-dimethylbenzofuran-2-carboxamide]: the IC50 in assay [1] (setting [6]) lay within 10 to 100 nM.

Regarding `CN(c1ccc(-c2cc3cc(C(=O)NC4CC4)oc3cc2O)nn1)[C@@H]1C[C@H]2CCC[C@@H](C1)N2` [compound 299, 5-(6-(((1R,3s,5S)-9-azabicyclo[3.3.1]nonan-3-yl)(methyl)amino)pyridazin-3-yl)-N-cyclopropyl-6-hydroxybenzofuran-2-carboxamide], the IC50 in assay [1] (setting [6]) fell in the range of 10 to 100 nM.

Take `CN(c1ccc(-c2ccc(-c3cc(=O)n(C)cn3)cc2O)nn1)[C@@H]1C[C@H]2CCC[C@@H](C1)N2` [compound 300, 6-(4-(6-(((2R,3s,5S)-9-azabicyclo[3.3.1]nonan-3-yl)(methyl)amino)pyridazin-3-yl)-3-hydroxyphenyl)-3-methylpyrimidin-4(3H)-one]: the IC50 in assay [1] (setting [6]) lay in the range of 10 to 100 nM.

With `CN(c1ccc(-c2ccc(-c3cnn(C(F)F)c3)cc2O)nn1)[C@@H]1C[C@H]2CCC[C@@H](C1)N2` [compound 301, 2-(6-(((1R,3s,5S)-9-azabicyclo[3.3.1]nonan-3-yl)(methyl)amino)pyridazin-3-yl)-5-(1-(difluoromethyl)-1H-pyrazol-4-yl)phenol], the IC50 in assay [1] (setting [6]) is 10 to 100 nM.

Turning to `C[C@]12CC[C@](C)(C[C@@H](N(c3ccc(-c4ccc(-c5cn[nH]c5)cc4O)nn3)C3CC3)C1)N2` [compound 302, 2-(6-(cyclopropyl((1R,3s,5S)-1,5-dimethyl-8-azabicyclo[3.2.1]octan-3-yl)amino)pyridazin-3-yl)-5-(1H-pyrazol-4-yl)phenol], the IC50 in assay [1] (setting [6]) fell in the range of 10 to 100 nM.

On to `[2H]C([2H])([2H])c1ncc(-c2ccc(-c3ccc(N(C)[C@H]4C[C@]5(C)CC[C@](C)(C4)N5)nn3)c(O)c2)o1` [compound 303, 2-(6-(((1R,3s,5S)-1,5-dimethyl-8-azabicyclo[3.2.1]octan-3-yl)(methyl)amino)pyridazin-3-yl)-5-(2-(methyl-d3)oxazol-5-yl)phenol], for which the IC50 in assay [1] (setting [6]) lay in the range of 10 to 100 nM.

For `CN(c1ccc(-c2ccc(-c3ccn(C)c(=O)n3)cc2O)nn1)[C@H]1C[C@]2(C)CCC[C@](C)(C1)N2` [compound 305, 4-(4-(6-(((1R,3s,5S)-1,5-dimethyl-9-azabicyclo[3.3.1]nonan-3-yl)(methyl)amino)pyridazin-3-yl)-3-hydroxyphenyl)-1-methylpyrimidin-2(1H)-one], in assay [1] (setting [6]), the IC50 was 101 to 250 nM.

With `CN(c1ccc(-c2ccc(-c3cc[nH]c(=O)c3)cc2O)nn1)[C@H]1C[C@]2(C)CCC[C@](C)(C1)N2` [compound 306, 4-(4-(6-(((1R,3s,5S)-1,5-dimethyl-9-azabicyclo[3.3.1]nonan-3-yl)(methyl)amino)pyridazin-3-yl)-3-hydroxyphenyl)pyridin-2(1H)-one], the IC50 in assay [1] (setting [7]) is under 10 nM; in assay [1] (Homo sapiens, A673, read-out: A-673 cell viability (IC50)) it was under 3 nM.

On to `CN(c1ccc(-c2ccc(-c3ccnc(OC(F)F)c3)cc2O)nn1)[C@H]1C[C@]2(C)CCC[C@](C)(C1)N2` [compound 308, 5-(2-(difluoromethoxy)pyridin-4-yl)-2-(6-(((1R,3s,5S)-1,5-dimethyl-9-azabicyclo[3.3.1]nonan-3-yl)(methyl)amino)pyridazin-3-yl)phenol], for which, in assay [1] (setting [7]), the IC50 fell in the range of 501 to 1000 nM.

The values above are taken from US11008572B2, “Methods and compositions for modulating splicing” (SKYHAWK THERAPEUTICS, INC., priority 2017, dated 2021).
